Test results: EPA's ToxValDB 9.5 (doi:10.2903/j.efsa.2009.1354)
In brackets after ≈: the same amount, converted by molar mass. Several values for one entry are separate records, joined by “and”; a condition that tells them apart may be missing. Equal entries are not always repeated.

Columns and labels:
[1] = system: Anas platyrhynchos; settings: for LD50: acute, unspecified; for LD50 / LC50: oral, mortality; for LC50: short-term, feed
[2] = system: Aphidius rhopalosiphi; settings: acute; duration: 2 days; mortality
[3] = system: Apis mellifera; settings: acute; duration: 48 hours; dermal; mortality
[4] = system: Colinus virginianus; settings: for LC50 / LD50: acute, oral, mortality; for LC50: diet
[5] = system: Coturnix japonica; settings: acute, oral, mortality
[6] = system: Cucumis sativus; settings: acute; duration: 21 days; biomass
[7] = system: Daphnia magna; settings: chronic/long-term; duration: 21 days; reproduction
[8] = system: Folsomia candida; settings: chronic/long-term; duration: 28 days
[9] = system: Hypoaspis aculeifer; settings: chronic/long-term; duration: 16 days; reproduction
[10] = system: Lepomis macrochirus; settings: acute; duration: 96 hours; mortality
[11] = system: Oncorhynchus mykiss; settings: chronic/long-term; duration: 14 days; growth
[12] = system: Oryctolagus sp.; settings: acute; oral; mortality
[13] = system: Phasianus sp.; settings: oral, mortality; for LD50: acute, unspecified
[14] = system: Rattus norvegicus
[15] = system: Anas platyrhynchos; assay: LC10; higher = less toxic; settings: short-term; duration: 14 days; oral; feed; mortality

## CCCCN(CCCC)SN(C)C(=O)Oc1cccc2c1OC(C)(C)C2 [Carbosulfan]
[1]; F
  LD50: 0.86 mg/kg-day
[1]; M
  LD50: 0.71 mg/kg-day
[1]; reproductive
  NOEL: 2.5 mg/kg-day
[1]; duration: 5 days
  LC50: 10 mg/kg-day and 17 mg/kg-day
[1]; duration: 14 days
  LC50: 1.6 mg/kg-day
[1]
  LC50: 3.99 mg/kg-day
[2]
  LEL: 120 g/ha
[3]
  LD50: 0.18 µg/piece
[4]; duration: 5 days
  LC50: 114 mg/kg-day
[4]; duration: 7 days
  LC50: 20.8 mg/kg-day
[4]; duration: 14 days
  LC50: 15.8 mg/kg-day
[4]; M/F
  LD50: 8 mg/kg-day
[4]
  LC50: 239 mg/kg-day
  LD50: 82 mg/kg-day
[4]; reproduction developmental
  NOEL: 10.8 mg/kg-day
[5]; F
  LD50: 3.5 mg/kg-day
[5]; M
  LD50: 4.9 mg/kg-day
[6]
  LEL: 1500 g/ha
[7]
  NOEC: 0.0032 mg/L
[8]
  NOEC: 0.3 mg/kg
[9]
  NOEC: 20 mg/kg
[10]
  LC50: 0.015 µg/mL (≈ 0.0394 µM)
[11]
  NOEC: 0.004 mg/L
[12]
  LD50: 42.7 mg/kg-day
[13]; F
  LD50: 6.2 mg/kg-day
[13]; M
  LD50: 4 mg/kg-day
[13]
  LD50: 20 mg/kg-day
[13]; short-term, feed
  LC50: 567 mg/kg-day
[14]; acute, clinical chemistry
  NOAEL: 0.5 mg/kg-day
[14]; acute, oral, mortality
  LD50: < 5.6 mg/kg-day
[14]; chronic
  NOAEL: 0.1 mg/kg-day
[14]; reproduction developmental, reproduction
  NOAEL: 1.2 mg/kg-day
[15]
  LC10: 0.64 mg/kg-day
